Where a SMILES comes first, the peptide text is derived from it.
Target: T1, DRB1*0101 (Homo sapiens, UniProt P01903+P01911, A100R/D57E/F55L/F60I/F76Y/I96L/L162R/M171V/P40L/Q125E/R42F/V115G/Y59C)
T1 construct: endogenous in cells; host or cells: cell lysate
Experiment: Competition binding assay using soluble HLA class II

Point of comparison: `CC(C)C[C@H](NC(=O)[C@H](CC(N)=O)NC(=O)CNC(=O)[C@@H](NC(=O)[C@H](C)NC(=O)[C@H](Cc1ccc(O)cc1)NC(=O)[C@H](CC(N)=O)NC(=O)[C@@H](NC(=O)CN)C(C)C)[C@@H](C)O)C(=O)N1CCC[C@H]1C(=O)NCC(=O)N[C@@H](CS)C(=O)N[C@@H](CO)C(=O)N[C@@H](Cc1ccccc1)C(=O)N[C@@H](CO)C(=O)O`, IC50 4.56 µM. Against it:
- CSCC[C@H](NC(=O)[C@H](CC(C)C)NC(=O)[C@H](C)NC(=O)[C@H](CC(=O)O)NC(=O)[C@@H](NC(=O)[C@H](C)NC(=O)[C@@H](NC(=O)[C@@H](NC(=O)[C@@H](NC(=O)[C@@H](NC(=O)[C@@H](N)CC(=O)O)C(C)C)C(C)C)C(C)C)C(C)C)[C@@H](C)O)C(=O)N[C@H](C(=O)NCC(=O)N[C@@H](Cc1ccc(O)cc1)C(=O)N[C@H](C(=O)O)[C@@H](C)O)[C@@H](C)O — 10-fold lower, 0.456 µM
- CC(C)C[C@H](NC(=O)[C@H](C)NC(=O)CNC(=O)[C@H](C)NC(=O)[C@@H](NC(=O)CNC(=O)[C@H](C)NC(=O)CNC(=O)[C@H](Cc1ccc(O)cc1)NC(=O)CNC(=O)[C@H](C)NC(=O)[C@@H](N)CC(C)C)C(C)C)C(=O)N[C@H](C(=O)N[C@@H](C)C(=O)N[C@@H](Cc1ccccc1)C(=O)O)C(C)C — 33-fold lower, 0.137 µM
- CC(C)C[C@H](NC(=O)[C@H](Cc1c[nH]cn1)NC(=O)[C@H](C)NC(=O)[C@@H](NC(=O)[C@H](CCC(N)=O)NC(=O)[C@H](Cc1ccccc1)NC(=O)[C@@H](NC(=O)[C@H](CCC(N)=O)NC(=O)[C@@H]1CCCN1)[C@@H](C)O)C(C)C)C(=O)N[C@@H](Cc1c[nH]cn1)C(=O)N[C@@H](C)C(=O)N1CCC[C@H]1C(=O)N[C@H](C(=O)NCC(=O)N[C@@H](CO)C(=O)O)[C@@H](C)O — 210-fold lower, 0.022 µM

Target: T2, HLA-Cw06 (Homo sapiens, UniProt P10321, A176E/A330V/C350S/L171W/L180W/L218V/M285V/M309V/M331V/N104K/P208H/Q277E/Q291P/R121W/R243W/S101N/S123Y/S297R/T329A/T363A/V319A/V328M)
T2 construct: endogenous in cells
Experiment: HLA class I competition cell-based binding assay

Point of comparison: `CC(C)[C@H](NC(=O)[C@H](CCCNC(=N)N)NC(=O)[C@H](CCC(N)=O)NC(=O)CNC(=O)[C@@H]1CCCN1C(=O)[C@H](CO)NC(=O)[C@H](Cc1ccc(O)cc1)NC(=O)[C@H](CCC(N)=O)NC(=O)[C@@H](N)Cc1ccccc1)C(=O)O` (H-FQYSPGQRV-OH), Ki 0.387 µM. Against it:
- CC[C@H](C)[C@H](NC(=O)[C@@H](NC(=O)[C@@H](N)CCC(=O)O)C(C)C)C(=O)N[C@@H](CCCCN)C(=O)NCC(=O)NCC(=O)N[C@@H](CCCNC(=N)N)C(=O)N[C@@H](Cc1c[nH]cn1)C(=O)N[C@@H](CC(C)C)C(=O)O — 33-fold higher, 12.8 µM
- CC[C@H](C)[C@H](NC(=O)CNC(=O)[C@H](CCCNC(=N)N)NC(=O)[C@H](CCCNC(=N)N)NC(=O)CN)C(=O)N[C@@H](Cc1ccc(O)cc1)C(=O)N[C@@H](CCCNC(=N)N)C(=O)N[C@@H](Cc1ccccc1)C(=O)N[C@H](C(=O)O)C(C)C — within 1.5-fold, 0.576 µM
- CC(C)C[C@H](NC(=O)CNC(=O)[C@H](CCCNC(=N)N)NC(=O)[C@H](Cc1ccc(O)cc1)NC(=O)[C@H](Cc1ccc(O)cc1)NC(=O)[C@H](C)NC(=O)[C@@H](NC(=O)[C@H](C)NC(=O)[C@@H](N)CC(N)=O)C(C)C)C(=O)O — 28-fold higher, 10.8 µM
- CC[C@H](C)[C@H](NC(=O)[C@H](CC(C)C)NC(=O)[C@H](Cc1c[nH]cn1)NC(=O)[C@H](CCCNC(=N)N)NC(=O)CNC(=O)CNC(=O)[C@H](CCCCN)NC(=O)[C@@H](NC(=O)[C@@H](N)C(C)C)[C@@H](C)CC)C(=O)N[C@@H](Cc1ccccc1)C(=O)O — 45-fold higher, 17.5 µM
- CC(C)C[C@H](NC(=O)[C@@H](NC(=O)[C@H](CCC(N)=O)NC(=O)[C@H](CC(C)C)NC(=O)[C@H](CCCNC(=N)N)NC(=O)[C@H](CC(=O)O)NC(=O)[C@H](Cc1ccccc1)NC(=O)[C@@H](NC(=O)[C@@H](N)C(C)C)[C@@H](C)O)C(C)C)C(=O)O — 2.9-fold higher, 1.13 µM
- CC(C)C[C@H](NC(=O)[C@H](CCCNC(=N)N)NC(=O)[C@@H](N)Cc1ccc(O)cc1)C(=O)NCC(=O)N[C@@H](C)C(=O)N[C@H](C(=O)N[C@@H](CCC(N)=O)C(=O)N[C@@H](CC(N)=O)C(=O)N[C@@H](CCC(=O)O)C(=O)N[C@H](C(=O)O)C(C)C)C(C)C — 1.8-fold lower, 0.217 µM
- CC(C)[C@H](NC(=O)CNC(=O)[C@H](CO)NC(=O)[C@H](C)NC(=O)[C@H](CCCNC(=N)N)NC(=O)[C@H](CS)NC(=O)[C@H](CCCNC(=N)N)NC(=O)[C@H](CCCNC(=N)N)NC(=O)[C@@H](N)Cc1ccc(O)cc1)C(=O)O — 1.6-fold higher, 0.634 µM
- CC(C)C[C@H](NC(=O)[C@@H](NC(=O)[C@H](CCCCN)NC(=O)[C@H](Cc1ccc(O)cc1)NC(=O)CNC(=O)[C@H](CCC(N)=O)NC(=O)[C@H](C)NC(=O)[C@H](C)N)C(C)C)C(=O)N[C@H](C(=O)O)C(C)C (H-AAQGYKVLV-OH; N-terminus and C-terminus assumed) — 16-fold higher, 6.32 µM
- CC(C)C[C@H](NC(=O)[C@H](C)NC(=O)[C@H](CCCNC(=N)N)NC(=O)[C@H](C)N)C(=O)N[C@@H](C)C(=O)N[C@@H](Cc1c[nH]cn1)C(=O)NCC(=O)N[C@H](C(=O)N[C@@H](CCCNC(=N)N)C(=O)N[C@H](C(=O)O)C(C)C)C(C)C (H-ARALAHGVRV-OH; N-terminus and C-terminus assumed) — 26-fold higher, 9.88 µM
- CC(C)[C@H](NC(=O)CNC(=O)[C@H](CCCNC(=N)N)NC(=O)[C@@H](NC(=O)[C@H](CS)NC(=O)[C@@H](NC(=O)[C@H](C)NC(=O)[C@H](C)NC(=O)[C@H](CCCNC(=N)N)NC(=O)[C@@H](N)Cc1ccccc1)C(C)C)[C@@H](C)O)C(=O)O (H-FRAAVCTRGV-OH; N-terminus and C-terminus assumed) — within 1.5-fold, 0.486 µM
- CC[C@H](C)[C@H](NC(=O)[C@H](CC(C)C)NC(=O)[C@H](CCCNC(=N)N)NC(=O)[C@H](C)NC(=O)[C@@H]1CCCN1C(=O)[C@H](CCCCN)NC(=O)[C@H](CCCNC(=N)N)NC(=O)CN)C(=O)N[C@H](C(=O)O)C(C)C (H-GRKPARLIV-OH; N-terminus and C-terminus assumed) — 5.3-fold higher, 2.04 µM
- CC[C@H](C)[C@H](N)C(=O)N[C@@H](CCCNC(=N)N)C(=O)N[C@@H](CO)C(=O)N[C@@H](CC(C)C)C(=O)N[C@H](C(=O)N[C@@H](CCC(=O)O)C(=O)N[C@@H](CCCNC(=N)N)C(=O)N[C@@H](CC(C)C)C(=O)N[C@@H](Cc1ccc(O)cc1)C(=O)N[C@H](C(=O)O)[C@@H](C)CC)[C@@H](C)O (H-IRSLTERLYI-OH; N-terminus and C-terminus assumed) — 16-fold higher, 6.22 µM
- CC[C@H](C)[C@H](NC(=O)[C@H](CC(C)C)NC(=O)[C@H](CCCNC(=N)N)NC(=O)[C@H](C)NC(=O)[C@@H]1CCCN1C(=O)[C@H](CCCCN)NC(=O)[C@@H](N)CCCNC(=N)N)C(=O)N[C@H](C(=O)N[C@@H](Cc1ccccc1)C(=O)O)C(C)C (H-RKPARLIVF-OH; N-terminus and C-terminus assumed) — 21-fold higher, 8.28 µM
- CC[C@H](C)[C@H](NC(=O)[C@H](CCC(N)=O)NC(=O)CNC(=O)CNC(=O)CNC(=O)[C@@H]1CCCN1C(=O)[C@H](Cc1ccccc1)NC(=O)[C@H](CCCCN)NC(=O)[C@@H](N)C(C)C)C(=O)N[C@H](C(=O)O)C(C)C (H-VKFPGGGQIV-OH; N-terminus and C-terminus assumed) — within 1.5-fold, 0.417 µM
- CC(C)C[C@H](NC(=O)[C@@H](NC(=O)[C@H](CCCCN)NC(=O)[C@H](Cc1ccc(O)cc1)NC(=O)CNC(=O)[C@H](CCC(N)=O)NC(=O)[C@H](C)NC(=O)[C@H](C)NC(=O)[C@@H](N)Cc1ccc(O)cc1)C(C)C)C(=O)N[C@H](C(=O)O)C(C)C (H-YAAQGYKVLV-OH; N-terminus and C-terminus assumed) — 24-fold higher, 9.21 µM

Source: US20060093617A1, “Peptides for inducing a CTL and/or HTL response to hepatitis C virus” (Innogenetics, N.V., priority 2004, published 2006)
